Measured values published in patent US20050063956A1, “Method and device for attracting insects” (Colorado State University Research Foundation, priority 1998, published 2005).

Test system: western corn root worm larvae
Assay: Glass bead Y-tube choice test, corn volatiles versus CO2 (Example 19)
Design: species or system Diabrotica virgifera virgifera LeConte
Details: in vivo
Experimental: Bioassay Procedure. All bioassays were choice tests conducted using a vertical glass “Y” tube apparatus filled with 3-mm glass beads (Bernklau and Bjostad 1998) (FIG. 62). Volatile compounds were prepared in 35-ml polyethylene syringes (cat no. 106-0490, Sherwood Medical, St. Louis, Mo.) and a syringe pump (Sage Model 355, Fisher Scientific, Pittsburgh, Pa.) was used to provide, slow (1 ml per min) consistent delivery of the compounds into each choice arm of the bioassay apparatus. Twenty newly-hatched larvae (less than 12-hours-old) were used for each bioassay. Non-diapausing larvae were used for all experiments unless otherwise indicated below. For each choice test a minimum of 10 replicates were conducted.
Corn Headspace Versus CO2. Using the glass bead bioassay (Bernklau and Bjostad 1998) the headspace over germinating corn seeds was tested in a choice test against a series of CO2 concentrations to determine if corn volatiles (including CO2) were more attractive to the larvae than CO2 alone. A 35-ml syringe was filled with the headspace over 3-day-old germinating corn seedlings by means of a 25-cm length of slender Teflon tubing inserted into a hole drilled into the cover of the tub containing the corn seedlings.
Three different concentrations of CO2 were tested on the control side of the choice test. In the 1 st test, we used ambient room air on the control side, which contains a lower concentration of CO2 than the corn headspace (approximately 1.0 mmol/mol). In the 2nd test, we used GC-MS-SIM to match the CO2 concentration in the syringe on the control side to be equal to that measured in the syringe containing corn headspace. In the 3rd test, the syringe on the control side of the choice test contained a CO2 concentration twice that measured in the corn headspace. To prepare each of these control concentrations, a 2nd 35-ml polyethylene syringe was partially filled (approximately 5 ml) from a tank containing pure (100%) CO2 using a glass syringe. Headspace from a plastic tub containing only moist germination paper was drawn into the syringe to fill it, mixing the air and CO2 thoroughly at the same time. The gas mixtures in the polyethylene syringes were allowed to equilibrate for 15 minutes, and GC-MS-SIM was used to verify the CO2 concentrations in both syringes prior to each bioassay.
Corn Headspace Versus CO2 with Diapausing Larvae. The larvae used in our studies were from a colony of nondiapausing western corn root worm that has been maintained in our laboratory since 1986. We wished to determine if diapausing western corn root worm larvae would respond differently to corn volatiles than the colony larvae. Using the same method described above, the headspace over germinating corn seeds was tested in a choice test against a series of CO2 concentrations with western corn root worm larvae from a diapausing strain.
Corn Headspace-Coated Glass Beads versus CO2. In the previous experiments, corn volatiles were introduced into the bottom of the Y-tube and carried through the glass beads by the airstream from the syringe pump. We also tested the possibility that some volatile compounds may have been removed from the airstream by coating out on the glass beads on the bottom of the Y-tube where they would not be available for the larvae to detect at the choice point near the middle of the Y-tube. […]

Structure (SMILES): O=C=O [CO2, carbon dioxide]
- role in attraction of larvae to corn roots (conclusion): the only attractive volatile compound that attracts western corn root worm larvae to corn roots
